Patent US10633377B2, “Imidazole and thiazole compositions for modifying biological signaling” (Ohio University, priority 2014, dated 2020)
Where two headings read alike, the source gives them in different places.

Legend:
iNOS transcripts = assay: Inhibition of LPS induction of iNOS transcripts in macrophages (rt-PCR); format: cell-based; details: LPS-treated murine macrophages, mRNA transcripts by rt-PCR
Method: (§1) Murine macrophages were treated with LPS in the presence of various exemplary compounds described above. Subsequently, the cells were harvested and the transcripts for IL-6, iNOS, and INF-β quantified via rt-PCR. IC50 is the concentration of the compounds required to inhibit 50% of the mRNA transcripts induced by LPS. TC50 is the concentration of the compounds required to diminish the MTS signal by 50% (MTS signal correlates with cell metabolism/viability). Therapeutic Index (TI) is the ratio of TC50 to IC50.
(§2) In TABLE 4, data are provided that show effects of exemplary compounds described above on the inhibition of LPS induction of IL-6, iNOS, and INF-β transcripts in macrophages. The IL-6, iNOS, and INF-β transcripts are key mediators in a plethora of signaling networks that are involved in normal physiology and pathological processes. The mechanism by which LPS induces the IL-6, iNOS, and INF-β transcripts is via a network of signaling events. […] Data in TABLE 4 that was not calculatable is noted “NC.”

INF-β transcripts = assay: Inhibition of LPS induction of INF-β transcripts in macrophages (rt-PCR); format: cell-based, Murine; details: for IC50: LPS-treated murine macrophages, mRNA transcripts by rt-PCR
Method: as §1, §2

[1] = MTS signal (cell metabolism/viability); format: cell-based, Murine; details: mouse, murine macrophages; concentration required to diminish the MTS signal by 50%; read-out: Average TC50
Method: as §1

IL-6 transcripts = assay: Inhibition of LPS induction of IL-6 transcripts in macrophages (rt-PCR); format: cell-based, Murine; details: for IC50: LPS-treated murine macrophages, mRNA transcripts by rt-PCR
Method: as §1, §2

Murine macrophages = assay: MTS signal (cell metabolism/viability); format: cell-based
Method: as §1

Row | SMILES | IC50 (iNOS transcripts; Mus musculus, Macrophage) [µM] | IC50 (INF-β transcripts; Mus musculus, Macrophage) [µM] | CC50 [1] [µM] | IC50 (IL-6 transcripts; Mus musculus, Macrophage) [µM] | further results
1 | COc1ccc(C2(O)CSC(=S)N2Cc2cccnc2)c(OC)c1 (stereo not drawn) [COB-199] | 2.2 | > 5 | 23 |  | 
2 | CCCN1C(=S)SCC1(O)c1ccc(Cl)c(Cl)c1 (stereo not drawn) [COB-210] | 2 | 3 | 45 | 16 | 
3 | COc1ccc(OC)c(-c2c[nH]c(=S)n2C)c1 [COB-132] | 38 | 85 | 360 | 26 | 
4 | CCCN1C(=S)SCC1(O)c1cccnc1 (stereo not drawn) [COR-207] | 2.7 | 2.1 |  | 12 | 
5 | CCCCCCN1C(=S)SCC1(O)c1ccccc1 (stereo not drawn) [COB-212] | 3.4 | 3.6 | 54 |  | 
6 | Oc1ccc(Cl)cc1C1(O)CSC(=S)N1Cc1ccccc1 (stereo not drawn) [COB-221] | 1.8 | 1.5 | 18 | > 10 | 
7 | COc1ccc(F)cc1C1(O)CSC(=S)N1Cc1cccnc1 (stereo not drawn) [COB-225] | 1 | 1 | 65 | 32.5 | 
8 | OC1(c2cc(C(F)(F)F)ccc2Cl)CSC(=S)N1Cc1cccnc1 (stereo not drawn) [COB-226] | 1.5 | 1.5 | 33 | 12.5 | 
9 | Cc1ccc(C)c(C2(O)CSC(=S)N2Cc2cccnc2)c1 (stereo not drawn) [COB-223] | 0.4 | 0.4 | 14 | 3.5 | 
10 | S=c1scc(-c2ccccc2)n1CCc1ccccc1 [COB-177] | 32 | 13 |  | 8 | 
11 | OC1(c2ccccc2)CSC(=S)N1Cc1cccc(CN2C(=S)SCC2(O)c2ccccc2)c1 (stereo not drawn) [COB-186] | 1.9 |  | 4 |  | IL-6 inhibition printed in IC50 column (IL-6 transcripts; 0.03 μM-2 μM): <30%; INF-β inhibition printed in IC50 column (INF-β transcripts; 0.5 μM-2 μM): 40%
12 | OC1(c2ccccc2)CSC(=S)N1Cc1cccnc1 (stereo not drawn) [COB-152] | 0.156 | 0.156 | 18 | 4.25 | 
13 | CCCCCCn1c(-c2ccccc2)csc1=S [COB-218] |  | 10.5 |  | 9.5 | MTS signal decrease (Murine macrophages; 100 μM): 0%
14 | COc1ccc(OC)c(-c2csc(=S)n2Cc2cccnc2)c1 [COB-203] |  | 8 | 270 | 19.5 | 
15 | COc1ccc(OC)c(C2(O)CSC(=S)N2Cc2ccccc2)c1 (stereo not drawn) [COB-143] | 3 | 1 | 23 | 13 | 
16 | COc1cccc(-c2c[nH]c(=S)n2C)c1 [COB-117] | 36 | 22 |  | 30 | 
17 | CCCn1c(-c2ccc(C#N)cc2)csc1=S [COR-216] | ~10 | ~10 | > 100 | 8.1 | 
18 | Cn1c(-c2ccc(OC(F)(F)F)cc2)c[nH]c1=S [COB-134] | 87 | 135 |  | 66 | 
19 | CCCn1c(-c2ccc(Cl)c(Cl)c2)csc1=S [COB-219] | ~20 | 16.5 |  | 8.5 | MTS signal decrease (Murine macrophages; 100 μM): 30%
20 | Oc1ccc(Cl)cc1C1(O)CSC(=S)N1Cc1cccnc1 (stereo not drawn) [COB-222] | 0.45 | 0.45 | 15 | 8.6 | 
21 | COc1ccc(-c2c[nH]c(=S)n2C)c(OC)c1 [COB-130] | 26 | 47 |  | 29 | 

Row | SMILES | IC50 (iNOS transcripts; Mus musculus, Macrophage) [µM] | IC50 (INF-β transcripts; Mus musculus, Macrophage) [µM] | CC50 [1] [µM] | IC50 (IL-6 transcripts; Mus musculus, Macrophage) [µM] | further results
22 | C=CCn1c(-c2ccccc2)csc1=S [COB-217] |  |  |  |  | IC50 (IL-6 transcripts): 8.2 µM; IC50 (iNOS transcripts): ~10 µM; IC50 (INF-β transcripts): ~10 µM; MTS signal decrease (Murine macrophages): 30%
23 | COc1ccc(-c2csc(=S)n2Cc2cccnc2)cc1 [COB-206] | 54 | 30 | 120 | 10.5 | 
24 | OC1(c2ccccc2)CSC(=S)N1Cc1nc2ccccc2[nH]1 (stereo not drawn) [COB-183] | 9.5 | 8 | > 50 | 19 | 
25 | OC1(c2ccccc2)CSC(=S)N1CCCc1ccccc1 (stereo not drawn) [COB-168] | 1.5 | 1.5 | 12 | 17 | 
26 | COc1ccc(C2(O)CSC(=S)N2Cc2cccnc2)cc1 (stereo not drawn) [COB-201] | 0.45 | 1.25 | 10 |  | 
27 | CCCn1c(-c2cccnc2)csc1=S [COB-214] | 10.5 |  | 230 | 6 | 
28 | Oc1cccc(C2(O)CSC(=S)N2Cc2cccnc2)c1 (stereo not drawn) [COB-198] | 0.15 | 0.2 | 17 |  | 
29 | CCCn1c(-c2cc(OC)ccc2OC)csc1=S [COB-220] | 3.75 | 12.2 | 60 | 5.5 | 
30 | Oc1cccc(C2(O)CSC(=S)N2Cc2ccccc2)c1 (stereo not drawn) [COB-196] | 0.5 | 0.375 | 17 |  | 
31 | O=c1oc2ccccc2cc1C1(O)CSC(=S)N1Cc1cccnc1 (stereo not drawn) [COB-202] | 2.2 | 4.4 | 43 |  | 
32 | CCCn1c(-c2cccc([N+](=O)[O-])c2)csc1=S [COB-215] | ~10 | ~10 | ~100 | 8.8 | 
33 | COc1ccc(-c2csc(=S)n2Cc2cccnc2)c(OC)c1 [COB-204] | 7 | 14 | 130 | 5 | 
34 | COc1ccc(OC)c(C2(O)CSC(=S)N2Cc2cccnc2)c1 (stereo not drawn) [COB-197] | 2.5 | 2.5 |  |  | 
35 | OC1(c2ccccc2)CSC(=S)N1Cc1ccncc1 (stereo not drawn) [COB-187] | 0.375 | 0.125 | 15 |  | 
36 | Oc1ccc(C2(O)CSC(=S)N2Cc2cccnc2)c(O)c1 (stereo not drawn) [COB-200] | 0.5 | 0.4 | 11 |  | 
37 | Cn1c(-c2cccc(Cl)c2)c[nH]c1=S [COB-119] | 60 | 46 | 390 | 45 | 
38 | COc1ccc(-c2c[nH]c(=S)n2C)cc1OC [COB-123] | 55 | 21 |  | 19 | 
39 | Cc1ccccc1C1(O)CSC(=S)N1Cc1cccnc1 (stereo not drawn) [COB-224] | 0.4 | 0.45 | 13 | 3.5 | 
40 | OC1(c2ccccc2)CSC(=S)N1Cc1ccc2[nH]ccc2c1 (stereo not drawn) [COB-188] | 0.25 | 0.25 | 13 |  | 
41 | CCn1c(-c2cccc(Cl)c2)c[nH]c1=O [COB-125] | 43 | 36 | 500 | 31 | 
